In patent publication US20160061841A1, “NRF2-BASED CANCER TREATMENT AND DETECTION METHODS AND USES” (CanBas Co., Ltd., priority 2014, published 2016):
Where no end group is shown, it is not given here. [ ]: non-standard residue; d: D form. dPhe(F5) = N[C@H](Cc1c(F)c(F)c(F)c(F)c1F)C(=O)O; dBpa = N[C@H](Cc1ccc(C(=O)c2ccccc2)cc1)C(=O)O; dCha = N[C@H](CC1CCCCC1)C(=O)O

Tests used:
Assay in all cases: CDDP-enhancing activity of CBP501, cell cycle distribution by flow-cytometry
Format in all cases: cell-based, Human
[1] = system: HCC827; conditions: 1 h co-exposure with CDDP
Description: (§1) Cell culture and reagents. Human NSCLC cell lines were cultured in a variety of media, each supplemented with 10% fetal bovine serum (Invitrogen, San Diego, CA) at 37° C. with 5% CO2/air. The media used was RPMI1640 (Sigma-Aldrich, St. Louis, Mo.) for NCI-H1755, NCI-H2030, NCI-H1437, NCI-H2122, NCI-H2172, NCI-H2228, NCI-H1563, NCI-H1944, NCI-H1993, NCI-H1734, NCI-H1568, NCI-H2444, NCI-H2291, NCI-H2347, NCI-H1838, NCI-H1299, HCC827, NCI-H1975, NCI-H1155, NCI-H522 and NCI-H1703; RPMI1640 supplemented with 2mM L-glutamine (Invitrogen) for NCI-H727; RPMI1640 supplemented with 4.5 g/L D-glucose (Sigma-Aldrich), 10 mM HEPES (Sigma-Aldrich) and 1 mM sodium pyruvate (Sigma-Aldrich) for NCI-H358, NCI-H520, NCI-H23, NCI-H647 and NCI-H838; Ham's F12K (Sigma-Aldrich) for A549. CDDP was purchased from Sigma-Aldrich. Sulforaphane (SFN) was purchased from Sigma-Aldrich. All NSCLC cell lines were purchased from ATCC and STR analysis had been performed by ATCC to authenticate the identity of each cell line. All cell lines were used within three months after thawing.
(§2) Cell cycle analysis. Cells were plated in 24-well plates and incubated for 24 hours. The cells were treated with or without CDDP plus or minus CBP501 at the indicated concentration for the indicated times. The cells were harvested and stained with Krishan's solution (0.1% sodium citrate, 50 μg/ml propidium iodide, 20 μg/ml RNase A, 0.5% NP-40). Stained cells were analyzed by FACSCalibur (Becton Dickinson, Franklin Lakes, N.J.) using CELLQuest software (Becton Dickinson).
(§3) Here, the change in the cell cycle distribution, as indicated by flow-cytometry, was used to estimate the sensitivity of NSCLC cell lines to CBP501-enhanced cytotoxicity to CDDP. Such changes were monitored in cells treated with CDDP in the presence or absence of CBP501. The utility of this analysis for assessing the effectiveness of anti-cancer therapy is based on the absence of functioning G1/S checkpoint regulation in the cell cycle of many types of cancer cells (14). Lack of a functional G1/S checkpoint leads to an accumulation of cancer cells in G2/M phase upon their exposure to DNA-damaging anticancer agents (14, 15).
(§4) To assess the CDDP-enhancing activity of CBP501, one can examine either of two dose-response curves in which the X-axis indicates the dose of CDDP and Y-axis indicates either the number of cells in subG1 or in G2/M. The transition and peak in either dose-response curve will shift to the left in the presence of CBP501 for CBP501-sensitive cells, indicating the enhanced ability of CDDP to change the cell cycle distribution. […] Using this criterion based on CBP501's ability to shift the CDDP-induced subG1 or G2/M dose-response curve, twelve NSCLC cell lines were classified as being either, CBP501-sensitive or CBP501-insensitive. Cell lines that shifted the curve two fold or more were classified as CBP501 sensitive cells and those that shifted the curve less than two fold were classified as CBP501 insensitive (Table 1). Classification of CBP501 sensitivity in NSCLC cell lines.
(§5) Although the expression of Nrf2 or its several downstream transcription targets may possibly predict resistance to CBP501, the general reliability of these predictive markers for CBP501-sensitivity remained to be established. The combination effect of CBP501 and CDDP in sixteen additional NSCLC cell lines, classifying each as CBP501 sensitive or insensitive by the prior criteria was analyzed (Table 2). Classification of CBP501 sensitivity in additional NSCLC cell lines.

[2] = system: NCI-H23; conditions: 1 h co-exposure with CDDP, shift of subG1 or G2/M dose-response curve
Description: as §1, §2, §3, §4, §5

[3] = system: NCI-H1299; conditions: 1 h co-exposure with CDDP, shift of subG1 or G2/M dose-response curve
Description: as §1, §2, §3, §4, §5

[4] = system: NCI-H522; conditions: 1 h co-exposure with CDDP
Description: as §1, §2, §3, §4, §5

[5] = system: NCI-H727; conditions: 1 h co-exposure with CDDP
Description: as §1, §2, §3, §4, §5

[6] = system: NCI-H358; conditions: 1 h co-exposure with CDDP, shift of subG1 or G2/M dose-response curve
Description: as §1, §2, §3, §4, §5

[7] = system: NCI-H520; conditions: 1 h co-exposure with CDDP
Description: as §1, §2, §3, §4, §5

[8] = system: NCI-H1563; conditions: 1 h co-exposure with CDDP
Description: as §1, §2, §3, §4, §5

[9] = system: NCI-H647; conditions: 1 h co-exposure with CDDP, shift of subG1 or G2/M dose-response curve
Description: as §1, §2, §3, §4, §5

[10] = system: NCI-H1975; conditions: 1 h co-exposure with CDDP
Description: as §1, §2, §3, §4, §5

[11] = system: A549; conditions: 1 h co-exposure with CDDP, shift of subG1 or G2/M dose-response curve
Description: as §1, §2, §3, §4, §5

[12] = system: NCI-H1734; conditions: 1 h co-exposure with CDDP
Description: as §1, §2, §3, §4, §5

[13] = system: NCI-H1993; conditions: 1 h co-exposure with CDDP, shift of subG1 or G2/M dose-response curve
Description: as §1, §2, §3, §4, §5

[14] = system: NCI-H1155; conditions: 1 h co-exposure with CDDP
Description: as §1, §2, §3, §4, §5

[15] = system: NCI-H1755; conditions: 1 h co-exposure with CDDP
Description: as §1, §2, §3, §4, §5

[16] = shift of subG1 or G2/M dose-response curve

In the case of “(d-Bpa)(d-Ser)(d-Trp)(d-Ser)(d-Phe-2,3,4,5,6-F)(d-Cha)(d-Arg)(d-Arg)(d-Arg)(d-Gln)(d-Arg)(d-Arg) ([dBpa][dS][dW][dS][dPhe(F5)][dCha][dR][dR][dR][dQ][dR][dR]) [CBP501, anti-cancer drug candidate; calmodulin modulation and G2 checkpoint abrogation]”, the “Definition of CBP501 sensitivity” value [1] was “Sensitive (Cell lines that shifted the curve two fold or more were classified as CBP501 sensitive cells)”, the “Folds increase of CDDP effect by CBP501” value [1, 16] was 4 fold and the “Folds increase of CDDP effect by CBP501” value [2] was 4 fold. The “Folds increase of CDDP effect by CBP501” value [3] was 8 fold, the “Definition of CBP501 sensitivity” value [4] was “Sensitive (Cell lines that shifted the curve two fold or more were classified as CBP501 sensitive cells)” and the “Folds increase of CDDP effect by CBP501” value [4, 16] was 2 fold. For the same substance, the “Definition of CBP501 sensitivity” value [5] was “Insensitive (those that shifted the curve less than two fold were classified as CBP501 insensitive)”, the “Folds increase of CDDP effect by CBP501” value [5, 16] was 1 fold and the “Folds increase of CDDP effect by CBP501” value [6] was 1 fold. For the same substance, the “Definition of CBP501 sensitivity” value [7] was “Sensitive (Cell lines that shifted the curve two fold or more were classified as CBP501 sensitive cells)”, the “Folds increase of CDDP effect by CBP501” value [7, 16] was 2 fold and the “Definition of CBP501 sensitivity” value [8] was “Insensitive (those that shifted the curve less than two fold were classified as CBP501 insensitive)”. For the same substance, the “Folds increase of CDDP effect by CBP501” value [8, 16] was 1.5 fold, the “Folds increase of CDDP effect by CBP501” value [9] was 1.5 fold and the “Definition of CBP501 sensitivity” value [10] was “Sensitive (Cell lines that shifted the curve two fold or more were classified as CBP501 sensitive cells)”. For the same substance, the “Folds increase of CDDP effect by CBP501” value [10, 16] was 2 fold, the “Folds increase of CDDP effect by CBP501” value [11] was 2 fold and the “Definition of CBP501 sensitivity” value [12] was “Sensitive (Cell lines that shifted the curve two fold or more were classified as CBP501 sensitive cells)”. For the same substance, the “Folds increase of CDDP effect by CBP501” value [12, 16] was 2 fold, the “Folds increase of CDDP effect by CBP501” value [13] was 2 fold and the “Definition of CBP501 sensitivity” value [14] was “Insensitive (those that shifted the curve less than two fold were classified as CBP501 insensitive)”. The “Folds increase of CDDP effect by CBP501” value [14, 16] was 1.5 fold, the “Definition of CBP501 sensitivity” value [15] was “Insensitive (those that shifted the curve less than two fold were classified as CBP501 insensitive)” and the “Folds increase of CDDP effect by CBP501” value [15, 16] was 1 fold.
